{"source": "patent US20220251044A1", "about": "“CRYSTAL FORM OF HYPOXIA-INDUCIBLE FACTOR-PROLYL HYDROXYLASE INHIBITOR” (CRYSTAL PHARMACEUTICAL (SUZHOU) CO., LTD., priority 2019, published 2022)", "format_in_all_cases": "physicochemical", "key": {"[1]": {"assay": "Physical stability on grinding (XRPD)", "settings": "ground manually for 5 min in a mortar", "method": "Form CSI and WO2014014835 Form A was ground manually for 5 min in a mortar."}, "[2]": {"assay": "Kinetic solubility in SGF, FaSSIF, FeSSIF and water", "description": "The parameters for kinetic solubility tests of the present disclosure are as follows:\nWhen solubility test is used to predict the in vivo performance of a drug, it is critical to simulate in vivo conditions as closely as possible. For oral medication, Simulated Gastric Fluid (SGF), Fasted-State Simulated Intestinal Fluid (FaSSIF), Fed-State Simulated Intestinal Fluid (FeSSIF) can be used to simulate the condition in vivo and predict the effects of feeding, thus solubility in such mediums is closer to that in vivo.\n20 mg of Form CSI and 20 mg of WO2014014835 Form A were suspended into 4.0 mL of SGF, 4.0 mL of FaSSIF, 4.0 mL of FeSSIF and 4.0 mL of water to get saturated solutions. After equilibrated for 1 h, 4 h, 8 h and 24 h, the concentrations (μg/mL) of Compound I of the saturated solutions were measured by UPLC."}, "Hygroscopicity by DVS": {"assay": "Hygroscopicity by DVS", "settings": "for Weight gain under 80% RH: DVS, 25° C.", "method": "Dynamic Vapor Sorption (DVS) was measured via an SMS (Surface Measurement Systems Ltd.) intrinsic DVS instrument. Its control software is DVS-Intrinsic control software. Typical parameters for DVS test are as follows: Temperature: 25° C. Gas and flow rate: N2, 200 mL/min dm/dt: 0.002%/min RH range: 0% RH to 95% RH DVS was applied to test the hygroscopicity of Form CSI and WO2014014835 Form A with about 10 mg of samples. The weight gains at each relative humidity were recorded in a cycle of 0-95%-0 RH. XRPD test was applied before and after DVS. Description and definition of hygroscopicity (general notice 9103 drug hygroscopicity test guidelines in 2015 edition of Chinese Pharmacopoeia, test at 25° C.±1° C., 80% RH. The definition of hygroscopicity in the 9th European Pharmacopoeia 5.11 is similar to the Chinese Pharmacopoeia.)."}, "[3]": {"assay": "Intrinsic dissolution (IDR)", "settings": "for IDR: slope of data within 5-120 minutes", "method": "The parameters for intrinsic dissolution tests in the present disclosure are as follows:\nApproximately 100 mg of Form CSI or WO2014014835 Form A was added into the cavity of the die, and then compressed at 10 kN and held for 0.5 minute to obtain a tablet having a surface area of 0.5 cm^2. The die with the tablet still embedded was put into a dissolution apparatus to test the intrinsic dissolution. The slope (in μg/min) of the regression line was calculated according to the data within 5-120 minutes. IDR (in μg/min/cm^2) was further calculated according to the slope."}, "[4]": {"assay": "Compressibility (tablet hardness, tensile strength)", "settings": "80 mg, compressed at 10 kN", "method": "ENERPAC manual tablet press was used for compression. 80 mg of Form CSI and WO2014014835 Form A were weighed and added into the dies of a φ6 mm round tooling, compressed at 10 kN, then stored at room temperature for 24 h until complete elastic recovery. Hardness (H) was tested with an intelligent tablet hardness tester. Diameter (D) and thickness (L) were tested with a caliper. Tensile strength of the powder was calculated with the following formula: T=2H/πDL*9.8. Under a certain force, the greater the tensile strength, the better the compressibility."}}, "note": "Like-named read-outs stand apart in the source and are kept apart here.", "data": [{"smiles": "Cc1nc(C(=O)NCC(=O)O)c(O)c2ccc(Oc3ccccc3)cc12", "note": "[WO2014014835 Form A, [(4-hydroxy-1-methyl-7-phenoxy-isoquinoline-3-carbonyl)-amino]-acetic acid, reference compound]", "values": [{"measurement": "Crystalline form and crystallinity after grinding (XRPD)", "setting": "[1]", "value": "decreases after grinding"}, {"measurement": "Crystalline form and crystallinity after grinding (XRPD)", "setting": "[1]; listed as Form A", "value": "decreases after grinding"}, {"measurement": "Kinetic solubility (concentration of Compound I in saturated solution)", "setting": "[2]; FaSSIF, 1 hour", "value": 241.2, "unit": "µg/mL"}, {"measurement": "solubility kinetic at 4 h", "setting": "[2]; FaSSIF, thermodynamic from solid, FaSSIF, 4 hours, read-out: Kinetic solubility (concentration of Compound I in saturated solution)", "value": 569, "unit": "µg/mL"}, {"measurement": "solubility kinetic at 8 h", "setting": "[2]; FaSSIF, thermodynamic from solid, FaSSIF, 8 hours, read-out: Kinetic solubility (concentration of Compound I in saturated solution)", "value": 567, "unit": "µg/mL"}, {"measurement": "solubility kinetic at 24 h", "setting": "[2]; FaSSIF, thermodynamic from solid, FaSSIF, 24 hours, read-out: Kinetic solubility (concentration of Compound I in saturated solution)", "value": 570, "unit": "µg/mL"}, {"measurement": "solubility kinetic at 1 h", "setting": "[2]; FeSSIF, thermodynamic from solid, FeSSIF, 1 hour, read-out: Kinetic solubility (concentration of Compound I in saturated solution)", "value": 146, "unit": "µg/mL"}, {"measurement": "solubility kinetic at 4 h", "setting": "[2]; FeSSIF, thermodynamic from solid, FeSSIF, 4 hours, read-out: Kinetic solubility (concentration of Compound I in saturated solution)", "value": 150, "unit": "µg/mL"}, {"measurement": "solubility kinetic at 8 h", "setting": "[2]; FeSSIF, thermodynamic from solid, FeSSIF, 8 hours, read-out: Kinetic solubility (concentration of Compound I in saturated solution)", "value": 161, "unit": "µg/mL"}, {"measurement": "solubility kinetic at 24 h", "setting": "[2]; FeSSIF, thermodynamic from solid, FeSSIF, 24 hours, read-out: Kinetic solubility (concentration of Compound I in saturated solution)", "value": 269, "unit": "µg/mL"}, {"measurement": "Kinetic solubility (concentration of Compound I in saturated solution)", "setting": "[2]; SGF, 1 hour", "value": 3.6, "unit": "µg/mL"}, {"measurement": "Kinetic solubility (concentration of Compound I in saturated solution)", "setting": "[2]; SGF, 4 hours", "value": 3.7, "unit": "µg/mL"}, {"measurement": "Kinetic solubility (concentration of Compound I in saturated solution)", "setting": "[2]; SGF, 8 hours", "value": 3.7, "unit": "µg/mL"}, {"measurement": "Kinetic solubility (concentration of Compound I in saturated solution)", "setting": "[2]; SGF, 24 hours", "value": 3.6, "unit": "µg/mL"}, {"measurement": "Kinetic solubility (concentration of Compound I in saturated solution)", "setting": "[2]; water, 1 hour", "value": 4.7, "unit": "µg/mL"}, {"measurement": "Kinetic solubility (concentration of Compound I in saturated solution)", "setting": "[2]; water, 4 hours", "value": 7.9, "unit": "µg/mL"}, {"measurement": "Kinetic solubility (concentration of Compound I in saturated solution)", "setting": "[2]; water, 8 hours", "value": 8.4, "unit": "µg/mL"}, {"measurement": "Kinetic solubility (concentration of Compound I in saturated solution)", "setting": "[2]; water, 24 hours", "value": 10.1, "unit": "µg/mL"}, {"measurement": "Weight gain under 80% RH", "setting": "Hygroscopicity by DVS", "value": 0.21, "unit": "%"}, {"measurement": "Weight gain under 80% RH", "setting": "Hygroscopicity by DVS; listed as Form A", "value": 0.21, "unit": "%"}, {"measurement": "Hygroscopicity class", "setting": "Hygroscopicity by DVS; weight gain under 80% RH", "value": "slightly hygroscopic"}, {"measurement": "Cumulative dissolution", "setting": "[3]; pH4.5 PBS, 5 min, 37° C., 0.5 cm^2 tablet", "value": 19.9, "unit": "µg"}, {"measurement": "Cumulative dissolution", "setting": "[3]; pH4.5 PBS, 10 min", "value": 24.1, "unit": "µg"}, {"measurement": "Cumulative dissolution", "setting": "[3]; pH4.5 PBS, 15 min", "value": 28.7, "unit": "µg"}, {"measurement": "Cumulative dissolution", "setting": "[3]; pH4.5 PBS, 20 min", "value": 34.0, "unit": "µg"}, {"measurement": "Cumulative dissolution", "setting": "[3]; pH4.5 PBS, 25 min", "value": 36.6, "unit": "µg"}, {"measurement": "Cumulative dissolution", "setting": "[3]; pH4.5 PBS, 30 min", "value": 40.2, "unit": "µg"}, {"measurement": "Cumulative dissolution", "setting": "[3]; pH4.5 PBS, 45 min", "value": 49.1, "unit": "µg"}, {"measurement": "Cumulative dissolution", "setting": "[3]; pH4.5 PBS, 60 min", "value": 59.4, "unit": "µg"}, {"measurement": "Cumulative dissolution", "setting": "[3]; pH4.5 PBS, 90 min", "value": 80.0, "unit": "µg"}, {"measurement": "Cumulative dissolution", "setting": "[3]; pH4.5 PBS, 120 min", "value": 98.2, "unit": "µg"}, {"measurement": "IDR", "setting": "[3]; pH4.5 PBS", "value": 1.3454, "unit": "μg/min/cm^2"}, {"measurement": "Cumulative dissolution", "setting": "[3]; pH6.8 PBS, 5 min, 37° C., 0.5 cm^2 tablet", "value": 439.4, "unit": "µg"}, {"measurement": "Cumulative dissolution", "setting": "[3]; pH6.8 PBS, 10 min", "value": 815.5, "unit": "µg"}, {"measurement": "Cumulative dissolution", "setting": "[3]; pH6.8 PBS, 15 min", "value": 1158.2, "unit": "µg"}, {"measurement": "Cumulative dissolution", "setting": "[3]; pH6.8 PBS, 20 min", "value": 1488.8, "unit": "µg"}, {"measurement": "Cumulative dissolution", "setting": "[3]; pH6.8 PBS, 25 min", "value": 1800.6, "unit": "µg"}, {"measurement": "Cumulative dissolution", "setting": "[3]; pH6.8 PBS, 30 min", "value": 2110.0, "unit": "µg"}, {"measurement": "Cumulative dissolution", "setting": "[3]; pH6.8 PBS, 45 min", "value": 2853.7, "unit": "µg"}, {"measurement": "Cumulative dissolution", "setting": "[3]; pH6.8 PBS, 60 min", "value": 3624.8, "unit": "µg"}, {"measurement": "Cumulative dissolution", "setting": "[3]; pH6.8 PBS, 90 min", "value": 5068.5, "unit": "µg"}, {"measurement": "Cumulative dissolution", "setting": "[3]; pH6.8 PBS, 120 min", "value": 6427.1, "unit": "µg"}, {"measurement": "IDR", "setting": "[3]; pH6.8 PBS", "value": 102.8372, "unit": "μg/min/cm^2"}, {"measurement": "Tensile strength", "setting": "[4]; T=2H/πDL*9.8", "value": 0.33, "unit": "MPa"}, {"measurement": "Hardness", "setting": "[4]; φ6 mm round tooling, after 24 h", "value": 0.67, "unit": "kgf"}]}]}
